Earlier results as cited in patent US5135753A, “Method and therapeutic system for smoking cessation” (Pharmetrix Corporation, priority 1991, dated 1992).

What was measured:
skin = settings: average penetration rate through the skin; very approximate figures
[1] = Russell
[2] = tested on: smoking withdrawal symptoms; settings: low consistent blood levels of nicotine; craving may not be among the relieved symptoms
[3] = tested on: nicotinic cholinergic receptors in the CNS and at autonomic ganglia; settings: in 10 minutes

Row | SMILES | permeability at later times (human cadaver skin; at later times, "and more") | permeability during the first day of patch use (human cadaver skin; first day of patch use) | skin flux (skin) | lethal unit dose (average adult) | optimal steady-state blood level for nicotine replacement [1] | symptoms of nicotine withdrawal [2] | rise in nicotine blood level required to obtain postsynaptic effects [3]
1 | CN1CCCC1c1cccnc1 (stereo not shown) [nicotine] | ≥ 0.4 mg/cm^2.h | ~0.1 mg/cm^2.h | 100-300 μg/cm^2.h | about 60 mg | 10 to 15 ng/mL | relieve some of the symptoms of nicotine withdrawal | at least 10 ng/mL
2 | Clc1cccc(Cl)c1N=C1NCCN1 [clonidine] | – | – | 0.5 μg/cm^2.h | – | – | – | –
3 | C[C@]12CC[C@@H]3c4ccc(O)cc4CC[C@H]3[C@@H]1CC[C@@H]2O [estradiol] | – | – | 0.01-0.03 μg/cm^2.h | – | – | – | –
4 | O=[N+]([O-])OCC(CO[N+](=O)[O-])O[N+](=O)[O-] [nitroglycerin] | – | – | 10-25 μg/cm^2.h | – | – | – | –
